{"source": "BindingDB's records for PubMed 35653695", "about": "(Ecole Polytechnique F?d?rale de Lausanne …, 2022)", "experiment": "Inhibition of mouse KLK5 assessed as inhibition constant using Boc-VPR-AMC as fluorogenic substrate incubated for 30 mins by fluorescence plate reader assay", "data": [{"compound": "CCCCCCCCCCCCCCCC(=O)NCCCC[C@H](NC(=O)[C@H](CCC(=O)O)NC(=O)[C@H](Cc1ccc(O)cc1)NC(=O)[C@H](CCC(=O)O)NC(=O)COCCOCCNC(=O)c1ccc(-c2c3ccc(=O)cc-3oc3cc(O)ccc23)c(C(=O)O)c1)C(=O)N[C@@H](CCC(=O)O)C(=O)N[C@@H](Cc1ccc(O)cc1)C(=O)N[C@@H](CCC(=O)O)C(=O)NCCOCCOCC(=O)NCCCC[C@H](NC(=O)CNC(=O)[C@@H]1CSCC(=O)CSC[C@H](NC(=O)CN)C(=O)N[C@@H]([C@@H](C)O)C(=O)N[C@@H](CCCNC(=N)N)C(=O)N[C@@H](CCC(N)=O)C(=O)N[C@@H](Cc2ccc(O)cc2)C(=O)N2CCC[C@H]2C(=O)N1)C(=O)NCC(N)=O", "values": [{"measurement": "Ki", "value": 1.4, "unit": "nM"}]}]}
